ChEMBL document CHEMBL4613219, “Formation of 5α-dihydrotestosterone from 5α-androstane-3α,17β-diol in prostate cancer LAPC-4 cells - Identifying inhibitors of non-classical pathways producing the most potent androgen” (Bioorg Med Chem Lett, 2020)

Key:
Conditions in all cases: LAPC4, 24 h
[1] = test system: LAPC4; test: Inhibition of 3-alpha-diol conversion to 5-alpha-dihydrotestosterone in human LAPC4 cells assessed in 200000 cells at 3 uM measured after 24 hrs using [14C]-3-alpha-diol/[14C]-3-beta-diol (9:1) as non-radiolabeled/radiolabeled 20:1 mixture by TLC analysis relative to control; assay type: functional
[2] = test system: LAPC4; test: Inhibition of 3-alpha-diol conversion to 5-alpha-dihydrotestosterone in human LAPC4 cells assessed in 200000 cells measured after 24 hrs using [14C]-3-alpha-diol/[14C]-3-beta-diol (9:1) as non-radiolabeled/radiolabeled 20:1 mixture by TLC analysis; assay type: functional, cell-based
[3] = test system: LAPC4; test: Inhibition of 3-alpha-diol conversion to 5-alpha-dihydrotestosterone in human LAPC4 cells assessed in 200000 cells at 10 uM measured after 24 hrs using [14C]-3-alpha-diol/[14C]-3-beta-diol (9:1) as non-radiolabeled/radiolabeled 20:1 mixture by TLC analysis relative to control; assay type: functional
[4] = test system: LAPC4; test: Inhibition of 3-alpha-diol conversion to 5-alpha-dihydrotestosterone in human LAPC4 cells assessed in 100000 cells at 10 uM measured after 24 hrs using [14C]-3-alpha-diol/[14C]-3-beta-diol (9:1) as non-radiolabeled/radiolabeled 20:1 mixture by TLC analysis relative to control; assay type: functional
[5] = test system: LAPC4; test: Inhibition of 3-alpha-diol conversion to 5-alpha-dihydrotestosterone in human LAPC4 cells assessed in 100000 cells at 3 uM measured after 24 hrs using [14C]-3-alpha-diol/[14C]-3-beta-diol (9:1) as non-radiolabeled/radiolabeled 20:1 mixture by TLC analysis relative to control; assay type: functional

| SMILES | inhibition at 3 µM [1] [%] | IC50 [2] [µM] | inhibition at 10 µM [3] [%] | inhibition at 10 µM [4] [%] | inhibition at 3 µM [5] [%] |
| --- | --- | --- | --- | --- | --- |
| C#C[C@]1(O)CC[C@H]2[C@@H]3CC[C@H]4C[C@@](O)(CN5CCN(Cc6ccc(C(F)(F)F)c(OC)c6)CC5)CC[C@]4(C)[C@H]3CC[C@@]21C | 74 | 1.2 | 88.8 | – | – |
| COc1cc(C)ccc1CN1CCN(C[C@@]2(O)CC[C@@]3(C)[C@@H](CC[C@@H]4[C@@H]3CC[C@]3(C)C(=O)CC[C@@H]43)C2)CC1 | – | – | – | 51.2 | 12.2 |
| COc1cc(CN2CCN(C[C@@]3(O)CC[C@@]4(C)[C@@H](CC[C@@H]5[C@@H]4CC[C@]4(C)C(=O)CC[C@@H]54)C3)CC2)ccc1C(F)(F)F | – | 8 | – | – | – |
| COc1cc(N2CCN(C[C@@]3(O)CC[C@@]4(C)[C@@H](CC[C@@H]5[C@@H]4CC[C@]4(C)C(=O)CC[C@@H]54)C3)CC2)ccc1F | 21.4 | – | 37.2 | – | – |
| COc1cccc(CN2CCN(C[C@@]3(O)CC[C@@]4(C)[C@@H](CC[C@@H]5[C@@H]4CC[C@@]4(C)[C@H]5CCC4(F)F)C3)CC2)c1 | – | – | – | 49.7 | 33.7 |
| COc1cccc(CN2CCN(C[C@@]3(O)CC[C@@]4(C)[C@@H](CC[C@@H]5[C@@H]4CC[C@]4(C)[C@@H](O)CC[C@@H]54)C3)CC2)c1 | – | – | – | 28.3 | 21.2 |
| C[C@]12CC[C@](O)(CN3CCN(C(=S)Nc4ccc5ccccc5c4)CC3)C[C@@H]1CC[C@@H]1[C@@H]2CC[C@]2(C)C(=O)CC[C@@H]12 | 41.1 | – | 42.1 | – | – |
| C[C@]12CC[C@](O)(CN3CCN(Cc4ccc5ccccc5n4)CC3)C[C@@H]1CC[C@@H]1[C@@H]2CC[C@]2(C)C(=O)CC[C@@H]12 | – | – | – | 27.4 | 8.4 |
| COc1cc(CN2CCN(C[C@@]3(O)CC[C@@]4(C)[C@@H](CC[C@@H]5[C@@H]4CC[C@]4(C)C(=O)CC[C@@H]54)C3)CC2)cc(C(F)(F)F)c1 | 46.8 | 3.7 | 62.9 | – | – |
| CC(=O)c1cccc(CN2CCN(C[C@@]3(O)CC[C@@]4(C)[C@@H](CC[C@@H]5[C@@H]4CC[C@]4(C)C(=O)CC[C@@H]54)C3)CC2)c1 | – | – | – | 15.5 | 3.7 |
| C[C@]12CC[C@](O)(CN3CCN(Cc4ccc5ccccc5c4)CC3)C[C@@H]1CC[C@@H]1[C@@H]2CC[C@]2(C)C(=O)CC[C@@H]12 | 30.1 | – | 51.4 | – | – |
| CCN(C)S(=O)(=O)N1CCN(C[C@@]2(O)CC[C@@]3(C)[C@@H](CC[C@@H]4[C@@H]3CC[C@]3(C)C(=O)CC[C@@H]43)C2)CC1 | – | – | – | 3.3 | 0 |
| C[C@]12CC[C@](O)(CN3CCN(C(=S)NCc4cccc(C(F)(F)F)c4)CC3)C[C@@H]1CC[C@@H]1[C@@H]2CC[C@]2(C)C(=O)CC[C@@H]12 | 47.7 | 3.6 | 57.7 | 49.7 | 27 |
| C[C@]12CCC(O)C[C@@H]1CC[C@@H]1[C@@H]2CC[C@]2(C)[C@@H](O)CC[C@@H]12 (stereo not given in full) | 73.6 | 0.56 | 87 | 79.3 | 46.9 |
| C[C@]12CC[C@](O)(CN3CCN(S(=O)(=O)c4ccc5ccccc5c4)CC3)C[C@@H]1CC[C@@H]1[C@@H]2CC[C@]2(C)C(=O)CC[C@@H]12 | 0.1 | – | 19.1 | – | – |
| C[C@]12CC[C@](O)(CN3CCN(C(=O)c4ccc5ccccc5c4)CC3)C[C@@H]1CC[C@@H]1[C@@H]2CC[C@]2(C)C(=O)CC[C@@H]12 | 43.6 | 6.1 | 65.3 | – | – |
| COc1cccc(CN2CCN(C[C@@]3(O)CC[C@@]4(C)[C@@H](CC[C@@H]5[C@@H]4CC[C@]4(C)C(=O)CC[C@@H]54)C3)CC2)c1 | – | – | – | 42.5 | 21.5 |
| C[C@]12CC[C@@H](O)C[C@@H]1CC[C@@H]1[C@@H]2CC[C@]2(C)C(=O)CC[C@@H]12 [ANDROSTERONE] | 85.7 | – | 83.8 | – | – |
| C#C[C@]1(O)CC[C@H]2[C@@H]3CC[C@H]4C[C@@](O)(CN5CCN(Cc6cccc(OC)c6C(F)(F)F)CC5)CC[C@]4(C)[C@H]3CC[C@@]21C | 44.3 | 14.1 | 56.2 | – | – |
| COc1cc(CN2CCN(C[C@@]3(O)CC[C@@]4(C)[C@@H](CC[C@@H]5[C@@H]4CC[C@]4(C)C(=O)CC[C@@H]54)C3)CC2)ccc1C | – | – | – | 49 | 22.3 |
| CN(C)S(=O)(=O)c1ccc(NC(=S)N2CCN(C[C@@]3(O)CC[C@@]4(C)[C@@H](CC[C@@H]5[C@@H]4CC[C@]4(C)C(=O)CC[C@@H]54)C3)CC2)cc1 | – | – | – | 31.7 | 14.3 |
| COc1cc(N2CCN(C[C@@]3(O)CC[C@@]4(C)[C@@H](CC[C@@H]5[C@@H]4CC[C@]4(C)C(=O)CC[C@@H]54)C3)CC2)ccc1C(F)(F)F | 37.4 | – | 63.2 | 55.6 | 33.7 |
| COc1cccc(CN2CCN(C[C@@]3(O)CC[C@@]4(C)[C@@H](CC[C@@H]5[C@@H]4CC[C@@]4(C)[C@H]5CC[C@]4(C)O)C3)CC2)c1 | – | – | – | 36.5 | 17.8 |
| C#C[C@]1(O)CC[C@H]2[C@@H]3CC[C@H]4C[C@@](O)(CN5CCN(Cc6cccc(OC)c6)CC5)CC[C@]4(C)[C@H]3CC[C@@]21C | – | – | – | 44.2 | 35.4 |
| COc1ccc(C(F)(F)F)c(N2CCN(C[C@@]3(O)CC[C@@]4(C)[C@@H](CC[C@@H]5[C@@H]4CC[C@]4(C)C(=O)CC[C@@H]54)C3)CC2)c1 | 27.6 | – | 48 | – | – |
| COc1cccc(CN2CCN(C[C@@]3(O)CC[C@@]4(C)[C@@H](CC[C@@H]5[C@@H]4CC[C@]4(C)C(=O)C(C)(C)C[C@@H]54)C3)CC2)c1 | – | – | – | 21.5 | 11.8 |
| COc1cccc(CN2CCN(C[C@@]3(O)CC[C@@]4(C)[C@@H](CC[C@@H]5[C@@H]4CC[C@]4(C)[C@H](O)CC[C@@H]54)C3)CC2)c1 | – | – | – | 27.6 | 9.5 |
